Earlier results as cited in US20260216324A1, “QS-21 COMPOSITIONS AND PROCESSES FOR PRODUCING THE SAME AND USES THEREFOR” (priority 2022, published 2026).

Assays:
[1] = U.S. Pat. No. 5,583,112 (Example 11), isomers derived from bark
[2] = U.S. Pat. No. 5,583,112 (Example 11), isomers derived from bark; remark: listed apart in the source
[3] = prior art; saponins purified from Quillaja saponaria bark extract

Compound	adjuvanticity compared to standard 65:35 QS-21 [1]	toxicity compared to standard 65:35 QS-21 [2]	adjuvant activity [3]
CC[C@H](C)[C@H](C[C@H](O)CC(=O)O[C@@H]1[C@H](O)[C@@H](O[C@@H]2O[C@@H](C)[C@H](O[C@@H]3OC[C@@H](O)[C@H](O[C@@H]4OC[C@](O)(CO)[C@H]4O)[C@H]3O)[C@@H](O)[C@H]2O)[C@H](OC(=O)[C@]23CCC(C)(C)C[C@H]2C2=CC[C@@H]4[C@@]5(C)CC[C@H](O[C@@H]6O[C@H](C(=O)O)[C@@H](O)[C@H](O[C@@H]7OC[C@@H](O)[C@H](O)[C@H]7O)[C@H]6O[C@@H]6O[C@H](CO)[C@H](O)[C@H](O)[C@H]6O)[C@@](C)(C=O)[C@@H]5CC[C@@]4(C)[C@]2(C)C[C@H]3O)O[C@@H]1C)OC(=O)C[C@@H](O)C[C@H](O[C@@H]1O[C@@H](CO)[C@H](O)[C@H]1O)[C@@H](C)CC (single isomer, unassigned) [purified apiose isomer]	comparable in both adjuvanticity and toxicity to the standard 65:35 (apiose:xylose ratio) QS-21	comparable in both adjuvanticity and toxicity to the standard 65:35 (apiose:xylose ratio) QS-21	–
CC[C@H](C)[C@H](C[C@H](O)CC(=O)O[C@@H]1[C@H](O)[C@@H](O[C@@H]2O[C@@H](C)[C@H](O[C@@H]3OC[C@@H](O)[C@H](O[C@@H]4OC[C@@H](O)[C@H](O)[C@H]4O)[C@H]3O)[C@@H](O)[C@H]2O)[C@H](OC(=O)[C@]23CCC(C)(C)C[C@H]2C2=CC[C@@H]4[C@@]5(C)CC[C@H](O[C@@H]6O[C@H](C(=O)O)[C@@H](O)[C@H](O[C@@H]7OC[C@@H](O)[C@H](O)[C@H]7O)[C@H]6O[C@@H]6O[C@H](CO)[C@H](O)[C@H](O)[C@H]6O)[C@@](C)(C=O)[C@@H]5CC[C@@]4(C)[C@]2(C)C[C@H]3O)O[C@@H]1C)OC(=O)C[C@@H](O)C[C@H](O[C@@H]1O[C@@H](CO)[C@H](O)[C@H]1O)[C@@H](C)CC (single isomer, unassigned) [purified xylose isomer]	comparable in both adjuvanticity and toxicity to the standard 65:35 (apiose:xylose ratio) QS-21	comparable in both adjuvanticity and toxicity to the standard 65:35 (apiose:xylose ratio) QS-21	–
QS-17	–	–	adjuvant active
QS-18	–	–	adjuvant active
